Source: paper PMC3856889 (Molecular cancer therapeutics, 2013)
Several values for one entry are separate records, joined by “and”; a condition that tells them apart may be missing. Equal entries are not always repeated.

Experiments:
[1] = system: H226; test: MTT cytotoxicity assay, H226 NSCLC cells; format: cell-based, human; conditions: read-out: IC50 (µM) H226, 96-h incubation
[2] = system: mice; conditions: cited from earlier work
[3] = system: C57 BL/6 mice; test: Maximum tolerable dose, i.p. injection; format: in vivo, mouse; conditions: dose level causing no deaths, chloride salt
[4] = system: supercoiled plasmid pUC18 DNA; conditions: cited from earlier work
[5] = system: H358; test: MTT cytotoxicity assay, H358 NSCLC cells; format: cell-based, human; conditions: read-out: IC50 (µM) H358, 96-h incubation
[6] = system: acetyl cholinesterase (AChE); conditions: in vitro and in vivo; cited from earlier work
[7] = cited from earlier work; for potential of tatpp-based reductive processes: vs. NHE at pH 7.0
[8] = radiolabeled complex, in vivo; cited from earlier work
[9] = system: H358 cells; test: Non-hypoxic/hypoxic cytotoxicity, cell count with Trypan blue; format: cell-based, human; conditions: hypoxic 1 % O2 relative to normoxic, 24 h, Fig. 2A
[10] = Water solubility of the salts; conditions: chloride salts
[11] = system: pAKT, pEGFR, PI3K, pRb, CDK4, cyclinB1, bcl2, Bax in H358 cells; test: Western blot of apoptotic, proliferative and tumor suppressor proteins; format: cell-based, human; conditions: H358, 10 µM, 24 h, Fig. 2D
[12] = system: HUVSMC; test: Cytotoxicity towards normal HUVSMC cells; format: cell-based, human; conditions: read-out: IC50 for normal HUVSMC cells
[13] = system: supercoiled plasmid pUC18 DNA; test: DNA cleavage assay; format: biochemical
[14] = system: HUVEC; test: Cytotoxicity towards normal HUVEC cells; format: cell-based, human
[15] = system: NCI-60 panel; test: NCI-60 cell line one-dose screen; format: cell-based; conditions: single dose 10 µM
[16] = system: HUVSMC; test: Apoptosis, HUVSMC; format: cell-based, human; conditions: similar treatment
[17] = system: HUVEC; test: Apoptosis, caspase-cleavage and TUNEL, HUVEC; format: cell-based, human; conditions: 10 µM

Compound | IC50 [1] | Maximum Tolerable Dose MTD (mg complex /kg mouse) [3] | Maximum Tolerable Dose MTD µmol complex /kg mouse [3] | IC50 [5] | other results
[Ru+2].c1cnc2c(c1)ccc1cccnc12.c1cnc2c(c1)ccc1cccnc12.c1cnc2c(c1)ccc1cccnc12 [1^2+, rac-[Ru(phen)3]^2+] | 90 µM and 92.8 µM | 6.6 mg complex /kg mouse | 9.1 µmol complex /kg mouse | 90 µM and 86.7 µM | minimum lethal dose ([2]; iodo salt, mice, i.p. injection): 12 µmol/kg; toxicity when administered orally ([2]; oral): non-toxic; DNA cleavage activity upon in situ reduction by glutathione [4]: nor do they exhibit any DNA cleavage activity; inhibition of acetyl cholinesterase (AChE) [6]: competitive inhibitor; reduction potential required [7]: ≤ −0.70 V
[106Ru+2].c1cnc2c(c1)ccc1cccnc12.c1cnc2c(c1)ccc1cccnc12.c1cnc2c(c1)ccc1cccnc12 [[^106Ru(phen)3]^2+] |  |  |  |  | recovery in the urine [8]: nearly all the complex was recovered in the urine
[Ru+2].c1ccc(-c2ccccn2)nc1.c1ccc(-c2ccccn2)nc1.c1ccc(-c2ccccn2)nc1 [rac-[Ru(bpy)3]^2+, reference compound] | 198 ± 15 µM |  |  | 209 ± 16 µM | 
[Ru+2].c1cnc2c(c1)ccc1cccnc12.c1cnc2c(c1)ccc1cccnc12.c1cnc2c(c1)ccc1cccnc12 [Δ-1^2+, Δ-[Ru(phen)3]^2+] | 93.6 ± 6.3 µM |  |  | 64.8 ± 4.2 µM | 
[Ru+2].c1cnc2c(c1)ccc1cccnc12.c1cnc2c(c1)ccc1cccnc12.c1cnc2c(c1)ccc1cccnc12 [Λ-1^2+, Λ-[Ru(phen)3]^2+] | 116 ± 6.9 µM |  |  | 61.4 ± 4.7 µM | 
[Ru(phen)2(dppz)]^2+ |  |  |  |  | potentiation of cytotoxicity under hypoxic conditions [9]: neither of which showed significant potentiation
cis-Pt(NH3)2Cl2 [cisplatin, reference compound] |  |  |  |  | LD50 ([2]; murine acute toxicity): ~ 57 µmol/kg; potentiation of cytotoxicity under hypoxic conditions [9]: neither of which showed significant potentiation
mix-[(phen)2Ru(tatpp)Ru(phen)2]^4+ [4^4+] | 16.2 ± 1.9 µM | 66 mg complex /kg mouse | 43 µmol complex /kg mouse | 15.2 ± 1.8 µM | DNA cleavage activity upon in situ reduction by glutathione [4]: effective DNA cleaving agent; water solubility [10]: water soluble; potential of tatpp-based reductive processes [7]: > −0.25 V
mix-[(phen)2Ru(tpphz)Ru(phen)2]^4+ [2^4+] | 51.1 ± 3.4 µM | 3.3 mg complex /kg mouse | 2.5 µmol complex /kg mouse | 41.8 ± 2.7 µM | DNA cleavage activity upon in situ reduction by glutathione [4]: nor do they exhibit any DNA cleavage activity; water solubility [10]: water soluble; reduction potential required [7]: ≤ −0.70 V
rac-[(phen)2Ru(tatpp)]^2+ [3^2+] | 12.5 ± 1.9 µM | 67 mg complex /kg mouse | 65 µmol complex /kg mouse | 13.2 ± 1.8 µM | water solubility [10]: water soluble; potential of tatpp-based reductive processes [7]: > −0.25 V
ΔΔ-[(phen)2Ru(tatpp)Ru(phen)2]^4+ [ΔΔ-4^4+] | 9.3 ± 0.9 µM | 100 mg complex /kg mouse | 64 µmol complex /kg mouse | 9.5 ± 1.2 µM | Bax level [11]: significantly increased; kinase signaling (pAKT, pEGFR, PI3K, pRb, CDK4, cyclinB1, bcl2) [11]: generalized decrease in kinase signaling; IC50 [12]: ~100 µM; DNA cleavage, dependence on GSH ([13]; presence or absence of GSH, Fig. 3A): only show DNA cleavage when GSH is present; DNA cleavage when O2 is absent ([13]; with GSH, anaerobic vs aerobic): appreciably enhanced; difference in cytotoxicity, malignant vs normal cells ([14]; malignant cell lines vs HUVEC and HUVSMC): ~10 fold; IC50 ([14]; read-out: IC50 for normal HUVEC cells): ~100 µM; mean growth percentage, whole panel [15]: 80%; apoptosis in HUVSMC [16]: did not show apoptosis; apoptosis in HUVEC [17]: did not show apoptosis
ΔΛ-[(phen)2Ru(tatpp)Ru(phen)2]^4+ [ΔΛ-4^4+] | 18.6 ± 1.5 µM | 66 mg complex /kg mouse | 43 µmol complex /kg mouse | 15.3 ± 1.5 µM | 
Λ-[(phen)2Ru(tatpp)]^2+ [Λ-3^2+] | 13 ± 2 µM |  |  | 13.8 ± 1.5 µM | 
ΛΛ-[(phen)2Ru(tatpp)Ru(phen)2]^4+ [ΛΛ-4^4+] | 17.3 ± 1.5 µM | 66 mg complex /kg mouse | 43 µmol complex /kg mouse | 16.7 ± 1 µM | 
